Where two headings read alike, the source gives them in different places.
Key:
normal mice = assay: Acute hypoglycemic assay in normal mice; format: in vivo; conditions: 10 mg/kg of bw per os
Procedure: (§1) STZ-induced diabetic mice and normal mice were placed in single cages with wire-net floors and deprived of food for 12 h before experimentation but allowed free access to tap water throughout. The compounds (at the doses of 10, 30, and 100 mg/kg of bw) were suspended in 0.05% Tween-80 in saline solution. Glibenclamide (10 mg/kg of bw) was suspended in the same vehicle. The target compounds were freshly prepared immediately before experimentation and administered by the intragastrical route at the doses of 10 ml/kg of bw. Control mice received only the vehicle (0.05% Tween-80 in saline solution) by the same route. Blood glucose levels were measured at 0, 1.5, 3, 5, 7, and 9 h after drugs administration.

STZ-diabetic mice = assay: Acute hypoglycemic assay in STZ-diabetic mice; format: in vivo; conditions: for Blood glucose concentration / % Variation of glycemia: STZ-diabetics mice, 10 mg/kg of bw per os
Procedure: Type II diabetes mellitus was induced in mice by a single intraperitoneal injection of freshly prepared STZ (Sigma Aldrich) dissolved in 0.1M citrate buffer, pH 4.5, in a volume of 110 mg/kg of bw. After 7 days of STZ administration, blood glucose levels of each mouse were determined. Mice with blood glucose levels higher than 11 mM were considered diabetic and were included in the study.
as §1

α-Glucosidase = molecular target: T1, α-Glucosidase (Saccharomyces cerevisiae, UniProt P53341); assay: biochemical; format: biochemical
T1 construct: purchased Sigma Aldrich G0660-750UN
Procedure: α-Glucosidase (G0660-750UN, Sigma Aldrich) and 4-Nitrophenyl α-D-glucopyranoside (PNPG, Macklin) were dissolved in phosphate buffer (pH 6.8, 100 mM), and the test compounds were dissolved in DMSO solution. The experiment was divided into blank group, control group, sample blank group, and sample group. The reagents were loaded in 96-well plates at the dose of the table (Table 8). The solution was bathed in 37 °C water for 10 min, and then enzyme solution was added. After reaction at 37 °C for 20 min, 70 μL Na2CO3 solution ([…]) was added to stop the reaction. All experiments were run in triplicate. […] Since PNPG can produce glucose and p-Nitrophenol (PNP) under the action of α-glucosidase, PNP has the greatest absorption at 405 nm. The absorbance was determined by the microplate reader, and the inhibition rate of α-glucosidase and the IC50 value of each sample were calculated according to the formula. Inhibition rate %={[(AC−AB)−(AS−ASB)]/(AC−AB)}×100% where AC is the absorbance of control group; AB is the absorbance of blank group; AS is the absorbance of sample group; ASB is the absorbance of sample blank group.

[1] = DPPH free radical scavenging; conditions: mean ± SD (n = 3)
Procedure: The effect of target compounds and vitamin C to scavenge the DPPH free radical was evaluated with the method described by Villano et al.[43] with slight modifications.
Two millilitres of different concentrations of the sample solution was added to 2.0 ml of DPPH solution (0.04 mg/mL), shaken and allowed to react at room temperature for 30 min. The absorbance value was measured at 517 nm with an ultraviolet-visible spectrophotometer. The blank reference cuvette contained absolute ethanol. All measurements were performed in triplicate. IC50 values were calculated. The percentage of DPPH radical scavenging rate of the target compound is calculated as follows: DPPH free radical scavenging effect (%)=[A0−(A1−A2)]/A0×100% where A0 is the absorbance of 2.0 ml DPPH solution +2.0 ml absolute ethanol; A1 is the absorbance of 2.0 ml DPPH solution +2.0 ml 3-arylcoumarins solution or standard; A2 is the absorbance of 2.0 ml 3-arylcoumarins solution or standard +2.0 ml absolute ethanol.

AGEs formation = assay: In vitro inhibitory activity of AGEs formation (bovine serum albumin/glucose); format: biochemical; conditions: mean ± SD (n = 3)
Procedure: To prepare the AGEs reaction solution, 10 mg/mL of bovine serum albumin in 50 mM PBS (pH 7.4) was added to 0.2 M glucose, and 0.02% sodium azide was added to prevent bacterial growth. The reaction mixture (3.0 ml) was then mixed with various concentrations (0.5–1000 μg/mL) of the target compounds (1.0 ml) dissolved in DMSO. After incubating at 37 °C for 14 d, the fluorescence intensity of AGE was determined by a fluorospectrophotometer (PE, USA) with excitation and emission wavelengths at 350 nm and 420 nm, respectively. All experiments were run in triplicate. Aminoguanidine hydrochloride was used as a reference compound. The inhibition rate of AGEs formation and the IC50 value of each sample were calculated according to the formula. Inhibition rate %={[(AC−AB)−(AS−ASB)]/(AC−AB)}×100% where AC is the absorbance of control group(1.0 ml glucose +1.0 ml bovine serum albumin +1.0 ml sodium azide +1.0 ml DMSO); AB is the absorbance of blank group(1.0 ml PBS +1.0 ml bovine serum albumin +1.0 ml sodium azide +1.0 ml DMSO); AS is the absorbance of sample group (1.0 ml glucose +1.0 ml bovine serum albumin +1.0 ml sodium azide +1.0 ml target compound solution or Aminoguanidine hydrochloride solution); ASB is the absorbance of sample blank group (1.0 ml PBS +1.0 ml bovine serum albumin +1.0 ml sodium azide +1.0 ml target compound solution or Aminoguanidine hydrochloride solution).

[2] = hydroxyl radical scavenging; conditions: mean ± SD (n = 3), read-out: OH IC50 Value
Procedure: The ability of the target compounds and vitamin C to scavenge the hydroxyl radical was evaluated with method described by Ismaili et al.[29] with slight modifications. In test tube, 1.0 ml H2O2 solution (0.03%), 1.0 ml FeSO4 solution (2 mmol.L^−1), 1.0 ml salicylic acid solution (10 mmol.L^−1) and 1.0 ml of 3-arylcoumarins and standard water solution with different concentration (0.4–2.0 mg/mL) were mixed. Finally, 1.0 ml H2O2 solution (0.03%) was added to this mixture to start the reaction. Solutions were kept at 37 °C. After 30 min, the absorbance was measured at 510 nm against the reagent blank, where the distilled water was substituted for the H2O2 solution. The percentage of OH scavenging by target compounds and vitamin C was calculated the following equation: OH scavenging effect (%)=[A0−(A1−A2)]/A0×100% where A0 is the absorbance of 1.0 ml distilled water +1.0 ml H2O2 + 1.0 ml FeSO4 + 1.0 ml salicylic acid +1.0 ml H2O2; A1 is the absorbance of 1.0 ml 3-arylcoumarins or standard +1.0 ml H2O2 + 1.0 ml FeSO4 + 1.0 ml salicylic acid +1.0 ml H2O2; A2 is the absorbance of 1.0 ml 3-arylcoumarins or standard +1.0 ml H2O2 + 1.0 ml FeSO4 + 1.0 ml absolute absolute ethanol +1.0 ml H2O2.

[3] = mean ± SD (n = 3), read-out: α-Glucosidase inhibitory activity IC50 Value

T1 sequence (P53341 whole entry): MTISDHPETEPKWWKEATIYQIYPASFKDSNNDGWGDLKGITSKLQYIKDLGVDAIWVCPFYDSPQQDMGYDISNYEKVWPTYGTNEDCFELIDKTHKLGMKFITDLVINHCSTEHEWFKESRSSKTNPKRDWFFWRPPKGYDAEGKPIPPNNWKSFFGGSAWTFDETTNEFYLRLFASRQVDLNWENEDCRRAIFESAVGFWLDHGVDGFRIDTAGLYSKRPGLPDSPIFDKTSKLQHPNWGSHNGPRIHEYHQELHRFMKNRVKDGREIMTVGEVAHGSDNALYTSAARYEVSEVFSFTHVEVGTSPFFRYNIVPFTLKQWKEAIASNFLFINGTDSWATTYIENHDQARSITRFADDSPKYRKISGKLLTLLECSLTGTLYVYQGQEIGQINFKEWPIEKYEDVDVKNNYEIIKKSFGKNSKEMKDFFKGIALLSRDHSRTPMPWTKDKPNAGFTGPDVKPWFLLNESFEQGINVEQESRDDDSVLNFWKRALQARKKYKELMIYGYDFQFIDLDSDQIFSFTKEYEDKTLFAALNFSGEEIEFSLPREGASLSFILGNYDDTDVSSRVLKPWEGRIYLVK

COc1ccc(Cl)cc1C(=O)NCCc1ccc(S(=O)(=O)NC(=O)NC2CCCCC2)cc1 [Glibenclamide, reference compound]
Blood glucose concentration (normal mice; 0h): 9.8 ± 1.5 mM | % Variation of glycemia (normal mice; 1.5h): (−34.58) % | Blood glucose concentration (normal mice; 1.5h): 6.4 ± 1.4 mM | % Variation of glycemia (normal mice; 3h): (−41.36) % | Blood glucose concentration (normal mice; 3h): 5.8 ± 0.8 mM | % Variation of glycemia (normal mice; 5h): (−49.15) % | Blood glucose concentration (normal mice; 5h): 5.0 ± 1.4 mM | % Variation of glycemia (normal mice; 7h): (−56.61) % | Blood glucose concentration (normal mice; 7h): 4.3 ± 0.6 mM | % Variation of glycemia (normal mice; 9h): (−58.31) % | Blood glucose concentration (normal mice; 9h): 4.1 ± 0.7 mM | Blood glucose concentration (STZ-diabetic mice; 0h): 16.9 ± 4.3 mM | % Variation of glycemia (STZ-diabetic mice; 1.5h): (−55.28) % | Blood glucose concentration (STZ-diabetic mice; 1.5h): 7.2 ± 4.0 mM | % Variation of glycemia (STZ-diabetic mice; 3h): (−57.14) % | Blood glucose concentration (STZ-diabetic mice; 3h): 6.9 ± 1.6 mM | % Variation of glycemia (STZ-diabetic mice; 5h): (−55.90) % | Blood glucose concentration (STZ-diabetic mice; 5h): 6.7 ± 2.5 mM | % Variation of glycemia (STZ-diabetic mice; 7h): (−59.63) % | Blood glucose concentration (STZ-diabetic mice; 7h): 6.5 ± 2.2 mM | % Variation of glycemia (STZ-diabetic mice; 9h): (−70.81) % | Blood glucose concentration (STZ-diabetic mice; 9h): 4.9 ± 2.5 mM | time of maximum hypoglycemic effect (STZ-diabetic mice; STZ-induced diabetic mice, 10 mg/kg of bw): 9 h

O=c1oc2c(O)cccc2cc1-c1ccc(O)cc1 [Compound 14, 8-Hydroxy-3-(4-hydroxyphenyl)-coumarin]
IC50 (α-Glucosidase): 213 ± 40.3 µM | IC50 [1]: 167 ± 2.01 µM | IC50 (AGEs formation): 45.2 ± 5.28 µM | IC50 [2]: > 1000 µM

O=c1oc2cc(O)ccc2cc1-c1ccc(Br)cc1 [Compound 44, 7-Hydroxy-3-(4-brominephenyl)-coumarin]
IC50 (α-Glucosidase; [3]): > 1000 µM | IC50 [1]: > 1000 µM | IC50 (AGEs formation): 7.51 ± 0.38 µM | IC50 [2]: > 1000 µM

O=c1oc2c(O)c(O)ccc2cc1-c1ccc(Br)cc1 [Compound 47, 7,8-Dihydroxy-3-(4-brominephenyl)-coumarin]
IC50 (α-Glucosidase; [3]): 35.7 ± 0.48 µM | IC50 [1]: 2.37 ± 0.06 µM | IC50 (AGEs formation): 299 ± 40.1 µM | IC50 [2]: 688 ± 49.7 µM

Cc1ccc(-c2cc3ccc(O)cc3oc2=O)cc1 [Compound 9, 7-Hydroxy-3-(4-methylphenyl)-coumarin]
IC50 (α-Glucosidase; [3]): 118 ± 41.5 µM | IC50 [1]: 60.2 ± 1.27 µM | IC50 (AGEs formation): > 1000 µM | IC50 [2]: > 1000 µM

O=c1oc2c(O)c(O)ccc2cc1-c1ccc(O)c(O)c1 [Compound 36, 7,8-Dihydroxy-3-(3,4-dihydroxyphenyl)-coumarin]
IC50 (α-Glucosidase; [3]): 247 ± 36.2 µM | IC50 [1]: 1.33 ± 0.03 µM | IC50 (AGEs formation): 14.2 ± 1.33 µM | IC50 [2]: 244 ± 11.8 µM

O=c1oc2ccccc2cc1-c1ccc(Br)cc1 [Compound 40, 3-(4-brominephenyl)-coumarin]
IC50 (α-Glucosidase; [3]): > 1000 µM | IC50 [1]: > 1000 µM | IC50 (AGEs formation): 13 ± 0.4 µM | IC50 [2]: > 1000 µM

O=c1oc2c(O)cccc2cc1-c1ccc(Br)cc1 [Compound 45, 8-Hydroxy-3-(4-brominephenyl)-coumarin]
IC50 (α-Glucosidase; [3]): > 1000 µM | IC50 [1]: 488 ± 95 µM | IC50 (AGEs formation): > 1000 µM | IC50 [2]: 596 ± 28.8 µM

COc1ccc(-c2cc3ccc(O)cc3oc2=O)cc1OC [Compound 37, 7-Hydroxy-3-(3,4-dimethoxyphenyl)-coumarin]
IC50 (α-Glucosidase; [3]): > 1000 µM | IC50 [1]: 173 ± 42.6 µM | IC50 [2]: > 1000 µM

COc1ccc(-c2cc3ccc(O)cc3oc2=O)cc1 [Compound 24, 7-Hydroxy-3-(4-methoxyphenyl)-coumarin]
IC50 (α-Glucosidase; [3]): 27.42 ± 0.11 µM | IC50 [1]: 53.9 ± 1.83 µM | IC50 (AGEs formation): > 1000 µM | IC50 [2]: > 1000 µM

O=c1oc2cc(O)ccc2cc1-c1ccc(F)cc1 [Compound 18, 7-Hydroxy-3-(4-fluorophenyl)-coumarin]
IC50 (α-Glucosidase; [3]): 86.9 ± 1.17 µM | IC50 [1]: > 1000 µM | IC50 (AGEs formation): 20.6 ± 0.39 µM | IC50 [2]: > 1000 µM

O=c1oc2cc(O)cc(O)c2cc1-c1ccc(Br)cc1 [Compound 46, 5,7-Dihydroxy-3-(4-brominephenyl)-coumarin]
IC50 (α-Glucosidase; [3]): > 1000 µM | IC50 [1]: > 1000 µM | IC50 (AGEs formation): 47.75 ± 0.15 µM | IC50 [2]: > 1000 µM

O=c1oc2ccccc2cc1-c1ccc(O)cc1 [Compound 6, 3-(4-Hydroxyphenyl)-coumarin]
IC50 (α-Glucosidase; [3]): 60.88 ± 0.55 µM | IC50 [1]: > 1000 µM | IC50 (AGEs formation): > 1000 µM | IC50 [2]: > 1000 µM

O=c1oc2cc(O)ccc2cc1-c1ccc(O)cc1 [Compound 12, 7-Hydroxy-3-(4-hydroxyphenyl)-coumarin]
IC50 (α-Glucosidase; [3]): 19.9 ± 3.39 µM | IC50 [1]: 756 ± 8.31 µM | IC50 [2]: > 1000 µM
